Measured values: patent EP4603105A1, “PHARMACEUTICAL COMPOSITION CONTAINING CYCLIC COMPOUND HAVING SELECTIVE KRAS INHIBITORY EFFECT AGAINST HRAS AND NRAS” (CHUGAI SEIYAKU KABUSHIKI KAISHA, priority 2022, dated 2024)

How the values were obtained:
HRAS wild-type protein = HRAS wild-type protein (Homo sapiens, UniProt P01112); experiment: Binding to HRAS by surface plasmon resonance (SPR), KD and KD ratio to KRAS; settings: ratio of KD value for HRAS wild-type protein to KD value for KRAS (SPR)
In short: (§1)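 Measured at 30°C: SPR with GDP-loaded, E. coli-expressed biotin-Avi RAS captured (~100–300 RU), ascending 75 s compound injections, HBS pH 7.4 with GDP, MgCl2, 4% DMSO. KD from 1:1 fit.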

[1] = target: GDP-bound NRAS wild-type protein (Homo sapiens, UniProt P01111); experiment: Binding to NRAS by surface plasmon resonance (SPR), KD and KD ratio to KRAS; settings: ratio of KD value for GDP-bound NRAS wild-type protein to KD value for KRAS (SPR)
In short: as §1

[2] = system: human lung cancer strain NCI-H441; format: cell-based
In short: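 Signal came from […] measured per well once the reagent was added. Beforehand, cells were cultured at 37°C and 5% carbon dioxide on a compound series serially diluted in dimethyl sulfoxide.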

Sequence of HRAS wild-type protein (P01112 whole entry): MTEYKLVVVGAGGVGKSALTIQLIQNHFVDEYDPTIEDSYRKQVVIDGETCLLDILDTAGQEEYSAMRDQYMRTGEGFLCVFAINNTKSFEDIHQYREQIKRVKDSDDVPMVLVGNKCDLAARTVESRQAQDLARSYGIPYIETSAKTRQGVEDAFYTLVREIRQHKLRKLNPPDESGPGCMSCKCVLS
Sequence of GDP-bound NRAS wild-type protein (P01111 whole entry): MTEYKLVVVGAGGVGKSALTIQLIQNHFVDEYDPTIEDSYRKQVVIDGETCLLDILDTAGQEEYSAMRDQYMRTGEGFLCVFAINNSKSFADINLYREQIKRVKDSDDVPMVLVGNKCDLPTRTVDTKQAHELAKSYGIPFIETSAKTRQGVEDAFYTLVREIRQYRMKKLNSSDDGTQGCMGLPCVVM

| SMILES | IC50 [2] [nM] | HRAS /KRAS (HRAS wild-type protein) | NRAS /KRAS [1] |
| --- | --- | --- | --- |
| CCO[C@@H]1C[C@H]2C(=O)NC3(CC(F)(F)C3)C(=O)N(C)[C@@H](C3CCCC3)C(=O)N(C)C(C3CCCCC3)CC(=O)N(C)[C@@H](COC)C(=O)N[C@@H]([C@@H](C)CC)C(=O)N(C)CC(=O)N(C)[C@H]3C/C=C\CCN(C3=O)[C@@H](Cc3ccc(C(F)(F)F)cc3)C(=O)N(C)CC(=O)N[C@@H](CCc3cc(F)c(C(F)(F)F)c(F)c3)C(=O)N2C1 (stereo partly drawn) [PP1586] | 85.5 | A (a compound having 10 or more and less than 20 is denoted as A) | A (a compound having 10 or more and less than 20 is denoted as A) |
| CCO[C@@H]1C[C@H]2C(=O)NC3(CCC3)C(=O)N(C)[C@@H](C3CCCC3)C(=O)N(C)C(C(C)C)CC(=O)N(C)[C@@H](CC)C(=O)N[C@@H]([C@@H](C)CC)C(=O)N(C)CC(=O)N(C)[C@H]3C/C=C\CCN(C3=O)[C@@H](Cc3ccc(C(F)(F)F)cc3)C(=O)N(C)CC(=O)N[C@@H](CCc3cc(F)c(C(F)(F)F)c(F)c3)C(=O)N2C1 (stereo partly drawn) [PP1590] | 8 | B (a compound having 3 or more and less than 10 is denoted as B) | A (a compound having 10 or more and less than 20 is denoted as A) |
| CCO[C@@H]1C[C@H]2C(=O)NC3(CCC3)C(=O)N(C)[C@@H](C(CC)CC)C(=O)N(C)C(C(C)C)CC(=O)N(C)[C@@H](CC3CC3)C(=O)N[C@@H]([C@@H](C)CC)C(=O)N(C)CC(=O)N(C)[C@H]3C/C=C\CCN(C3=O)[C@@H](Cc3ccc(C(F)(F)F)cc3)C(=O)N(C)CC(=O)N[C@@H](CCc3cc(F)c(C(F)(F)F)c(F)c3)C(=O)N2C1 (stereo partly drawn) [PP1595] | 64.6 | A (a compound having 10 or more and less than 20 is denoted as A) | A (a compound having 10 or more and less than 20 is denoted as A) |
| CCO[C@@H]1C[C@H]2C(=O)NC3(CCC3)C(=O)N(C)[C@@H](C3CCCC3)C(=O)N(C)[C@@H](C(C)C)CC(=O)N(C)[C@@H](CC3CC3)C(=O)N[C@@H]([C@@H](C)CC)C(=O)N(C)CC(=O)N(C)[C@H]3C/C=C\CCN(C3=O)[C@@H](Cc3ccc(C(F)(F)F)cc3)C(=O)N(C)CC(=O)N[C@@H](CCc3cc(F)c(C(F)(F)F)c(F)c3)C(=O)N2C1 [PP1596] | 18.1 | B (a compound having 3 or more and less than 10 is denoted as B) | A (a compound having 10 or more and less than 20 is denoted as A) |
| CCO[C@@H]1C[C@H]2C(=O)NC3(CCC3)C(=O)N(C)[C@@H](C3CCCC3)C(=O)N(C)[C@H](C(C)C)CC(=O)N(C)[C@@H](CC)C(=O)N[C@@H]([C@@H](C)CC)C(=O)N(C)CC(=O)N(C)[C@H]3C/C=C\CCN(C3=O)[C@@H](CC3CCCCC3)C(=O)N(C)CC(=O)N[C@@H](CCc3cc(F)c(C(F)(F)F)c(F)c3)C(=O)N2C1 [PP1601] | 78.6 | A (a compound having 10 or more and less than 20 is denoted as A) | B (a compound having 3 or more and less than 10 is denoted as B) |
| CCO[C@@H]1C[C@H]2C(=O)NC3(CC(C)(C)C3)C(=O)N(C)[C@@H](C3CCCC3)C(=O)N(C)[C@H](C(C)C)CC(=O)N(C)[C@@H](CC)C(=O)N[C@@H]([C@@H](C)CC)C(=O)N(C)CC(=O)N(C)[C@H]3C/C=C\CCN(C3=O)[C@@H](CC3CCCCC3)C(=O)N(C)CC(=O)N[C@@H](CCc3cc(F)c(C(F)(F)F)c(F)c3)C(=O)N2C1 [PP1603] | 132 | B (a compound having 3 or more and less than 10 is denoted as B) | B (a compound having 3 or more and less than 10 is denoted as B) |
| CCO[C@@H]1C[C@H]2C(=O)NC3(CC(C)(C)C3)C(=O)N(C)[C@@H](C3CCCC3)C(=O)N3CCC[C@@H]3CC(=O)N(C)[C@@H](CC)C(=O)N[C@@H]([C@@H](C)CC)C(=O)N(C)CC(=O)N(C)[C@H]3C/C=C\CCN(C3=O)[C@@H](Cc3ccc(C(F)(F)F)cc3)C(=O)N(C)CC(=O)N[C@@H](CCc3cc(F)c(C(F)(F)F)c(F)c3)C(=O)N2C1 [PP1606] | 12.6 | B (a compound having 3 or more and less than 10 is denoted as B) | B (a compound having 3 or more and less than 10 is denoted as B) |
| CCO[C@@H]1C[C@H]2C(=O)NC3(CC(F)(F)C3)C(=O)N(C)[C@@H](C3CCCC3)C(=O)N3CCC[C@@H]3CC(=O)N(C)[C@@H](CC)C(=O)N[C@@H]([C@@H](C)CC)C(=O)N(C)CC(=O)N(C)[C@H]3C/C=C\CCN(C3=O)[C@@H](Cc3ccc(C(F)(F)F)cc3)C(=O)N(C)CC(=O)N[C@@H](CCc3cc(F)c(C(F)(F)F)c(F)c3)C(=O)N2C1 [PP1609] | 37 | A (a compound having 10 or more and less than 20 is denoted as A) | A (a compound having 10 or more and less than 20 is denoted as A) |
| CCO[C@@H]1C[C@H]2C(=O)NC3(CC(C)(C)C3)C(=O)N(C)[C@@H](C(CC)CC)C(=O)N3CCC[C@@H]3CC(=O)N(C)[C@@H](CC3CC3)C(=O)N[C@@H]([C@@H](C)CC)C(=O)N(C)CC(=O)N(C)[C@H]3C/C=C\CCN(C3=O)[C@@H](Cc3ccc(C(F)(F)F)cc3)C(=O)N(C)CC(=O)N[C@@H](CCc3cc(F)c(C(F)(F)F)c(F)c3)C(=O)N2C1 [PP1610] | 86.8 | A (a compound having 10 or more and less than 20 is denoted as A) | A (a compound having 10 or more and less than 20 is denoted as A) |

Further compounds by falling IC50 [2], results first:

| IC50 [2] [nM] | SMILES | HRAS /KRAS (HRAS wild-type protein) | NRAS /KRAS [1] |
| --- | --- | --- | --- |
| 144 | CCO[C@@H]1C[C@H]2C(=O)NC3(CC(C)(C)C3)C(=O)N(C)[C@@H](C(CC)CC)C(=O)N(C)C(C(C)C)CC(=O)N(C)[C@@H](CC3CC3)C(=O)N[C@@H]([C@@H](C)CC)C(=O)N(C)CC(=O)N(C)[C@H]3C/C=C\CCN(C3=O)[C@@H](Cc3ccc(C(F)(F)F)cc3)C(=O)N(C)CC(=O)N[C@@H](CCc3cc(F)c(C(F)(F)F)c(F)c3)C(=O)N2C1 (stereo partly drawn) [PP1593] | A (a compound having 10 or more and less than 20 is denoted as A) | A (a compound having 10 or more and less than 20 is denoted as A) |
| 86.6 | CCO[C@@H]1C[C@H]2C(=O)NC3(CCC3)C(=O)N(C)[C@@H](C(CC)CC)C(=O)N(C)C(C(C)C)CC(=O)N(C)[C@@H](CC)C(=O)N[C@@H]([C@@H](C)CC)C(=O)N(C)CC(=O)N(C)[C@H]3C/C=C\CCN(C3=O)[C@@H](Cc3ccc(C(F)(F)F)cc3)C(=O)N(C)CC(=O)N[C@@H](CCc3cc(F)c(C(F)(F)F)c(F)c3)C(=O)N2C1 (stereo partly drawn) [PP1589] | A (a compound having 10 or more and less than 20 is denoted as A) | A (a compound having 10 or more and less than 20 is denoted as A) |
| 85.4 | CCO[C@@H]1C[C@H]2C(=O)NC3(CC(F)(F)C3)C(=O)N(C)[C@@H](C(CC)CC)C(=O)N(C)C(C(C)C)CC(=O)N(C)[C@@H](CC)C(=O)N[C@@H]([C@@H](C)CC)C(=O)N(C)CC(=O)N(C)[C@H]3C/C=C\CCN(C3=O)[C@@H](Cc3ccc(C(F)(F)F)cc3)C(=O)N(C)CC(=O)N[C@@H](CCc3cc(F)c(C(F)(F)F)c(F)c3)C(=O)N2C1 (stereo partly drawn) [PP1591] | A (a compound having 10 or more and less than 20 is denoted as A) | A (a compound having 10 or more and less than 20 is denoted as A) |
| 70.1 | CCO[C@@H]1C[C@H]2C(=O)NC3(CC(F)(F)C3)C(=O)N(C)[C@@H](C(CC)CC)C(=O)N3CCC[C@@H]3CC(=O)N(C)[C@@H](CC)C(=O)N[C@@H]([C@@H](C)CC)C(=O)N(C)CC(=O)N(C)[C@H]3C/C=C\CCN(C3=O)[C@@H](Cc3ccc(C(F)(F)F)cc3)C(=O)N(C)CC(=O)N[C@@H](CCc3cc(F)c(C(F)(F)F)c(F)c3)C(=O)N2C1 [PP1608] | A (a compound having 10 or more and less than 20 is denoted as A) | A (a compound having 10 or more and less than 20 is denoted as A) |
| 36.6 | CCO[C@@H]1C[C@H]2C(=O)NC3(CC(F)(F)C3)C(=O)N(C)[C@@H](C3CCCC3)C(=O)N(C)C(C(C)C)CC(=O)N(C)[C@@H](CC3CC3)C(=O)N[C@@H]([C@@H](C)CC)C(=O)N(C)CC(=O)N(C)[C@H]3C/C=C\CCN(C3=O)[C@@H](Cc3ccc(C(F)(F)F)cc3)C(=O)N(C)CC(=O)N[C@@H](CCc3cc(F)c(C(F)(F)F)c(F)c3)C(=O)N2C1 (stereo partly drawn) [PP1598] | A (a compound having 10 or more and less than 20 is denoted as A) | A (a compound having 10 or more and less than 20 is denoted as A) |
| 31.6 | CCO[C@@H]1C[C@H]2C(=O)NC3(CC(C)(C)C3)C(=O)N(C)[C@@H](C(CC)CC)C(=O)N3CCC[C@@H]3CC(=O)N(C)[C@@H](CC)C(=O)N[C@@H]([C@@H](C)CC)C(=O)N(C)CC(=O)N(C)[C@H]3C/C=C\CCN(C3=O)[C@@H](Cc3ccc(C(F)(F)F)cc3)C(=O)N(C)CC(=O)N[C@@H](CCc3cc(F)c(C(F)(F)F)c(F)c3)C(=O)N2C1 [PP1605] | A (a compound having 10 or more and less than 20 is denoted as A) | A (a compound having 10 or more and less than 20 is denoted as A) |
| 28 | CCO[C@@H]1C[C@H]2C(=O)NC3(CC(C)(C)C3)C(=O)N(C)[C@@H](C3CCCC3)C(=O)N3CCC[C@@H]3CC(=O)N(C)[C@@H](CC3CC3)C(=O)N[C@@H]([C@@H](C)CC)C(=O)N(C)CC(=O)N(C)[C@H]3C/C=C\CCN(C3=O)[C@@H](Cc3ccc(C(F)(F)F)cc3)C(=O)N(C)CC(=O)N[C@@H](CCc3cc(F)c(C(F)(F)F)c(F)c3)C(=O)N2C1 [PP1611] | B (a compound having 3 or more and less than 10 is denoted as B) | B (a compound having 3 or more and less than 10 is denoted as B) |
